# In paper PMC9194828, “Chemoenzymatic Synthesis of Asymmetrically Branched Human Milk Oligosaccharide Lacto-N-Hexaose” (Frontiers in Chemistry, 2022):
# Target: T1, HP0826 (β1,4-galactosyltransferase) (Helicobacter pylori, UniProt O25500)
# T1 construct: gene HP_0826; recombinantly expressed per earlier literature (Fang et al., 2018); used as cell lysate in synthesis
# Experiment: acceptor specificity test
# Assay type: cell-based
# Details: UDP-Gal donor; enzyme preparation not given
# T1 sequence (O25500 entry or part of it): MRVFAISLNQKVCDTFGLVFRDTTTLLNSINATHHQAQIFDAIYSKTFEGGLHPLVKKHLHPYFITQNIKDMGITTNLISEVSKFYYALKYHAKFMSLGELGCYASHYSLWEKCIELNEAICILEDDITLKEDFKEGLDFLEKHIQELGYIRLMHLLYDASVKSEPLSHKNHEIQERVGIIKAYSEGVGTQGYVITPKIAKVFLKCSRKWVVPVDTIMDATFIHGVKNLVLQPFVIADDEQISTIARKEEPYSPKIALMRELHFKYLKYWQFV
compound,measurement,value
CC(=O)N[C@H]1[C@H](OCCCCCCN=[N+]=[N-])O[C@H](CO)[C@@H](O)[C@@H]1O [GlcNAc-C6N3],acceptor specificity test,HP0826 exhibited excellent enzymatic activity on GlcNAc-C6N3
